Experimental data taken from ChEMBL document CHEMBL1201862, “PubChem BioAssay data set” (2004).
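Each compound was tested at five concentrations against cells in 96-well plates for 48 hours. GI50: concentration for 50% inhibition of growth.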 Calls of active or inactive are those of the source. Rule as the data show it: active = GI50 up to about 1.1 µM and inactive = higher. Where a SMILES comes first, the peptide text is derived from it. [ ]: non-standard residue; d: D form. The star is where a group is joined. ξ: configuration not given here. NMeF = CN[CH](Cc1ccccc1)C(=O)O; ξNMe2Val = CC(C)C(C(=O)*)N(C)C; NMeV = CN[CH](C(=O)O)C(C)C; OtBu = CC(C)(C)O*

How the values were obtained:
Test in all cases: NCI-60 cell line screen, 48 h
DLD-1 = tested on: DLD-1
SNB-78 = tested on: SNB-78
DMS-273 = tested on: DMS-273
HOP-18 = tested on: HOP-18
XF498 = tested on: XF498
DMS-114 = tested on: DMS-114
KM-20L2 = tested on: KM-20L2
LXFL 529 = tested on: LXFL 529
RXF 631 = tested on: RXF 631

| SMILES | GI50 (DLD-1) | GI50 (SNB-78) | GI50 (DMS-273) | GI50 (HOP-18) | GI50 (XF498) | GI50 (DMS-114) | GI50 (KM-20L2) | GI50 (LXFL 529) | GI50 (RXF 631) |
| --- | --- | --- | --- | --- | --- | --- | --- | --- | --- |
| CC(C)N1CCC2(CC1)NNc1ncccc1-n1cccc12 | > 100 µM (inactive) | > 100 µM (inactive) | > 100 µM (inactive) | > 100 µM (inactive) | > 100 µM (inactive) | > 100 µM (inactive) |  |  |  |
| CC(C)(C)OC(=O)N1CC(C)(C)N2C(=O)C3(CCCO3)C12 (stereo not given) | > 100 µM (inactive) | > 100 µM (inactive) | 37.8 µM (inactive) | > 100 µM (inactive) |  | > 100 µM (inactive) | > 100 µM (inactive) | > 100 µM (inactive) |  |
| CC(=O)NC1=C(NCC(C)C)C(=O)c2ccccc2C1=O | 19 µM (inactive) | 31.1 µM (inactive) | 14.4 µM (inactive) | 12.8 µM (inactive) | 14 µM (inactive) | 14.7 µM (inactive) | 21.2 µM (inactive) | 16.1 µM (inactive) |  |
| COC(=O)C1Cc2c(n(Cc3ccccc3)c3ccccc23)C(CCC(=O)O)N1C(C)C (stereo not given) | > 100 µM (inactive) | > 100 µM (inactive) | > 100 µM (inactive) | > 100 µM (inactive) |  | > 100 µM (inactive) | > 100 µM (inactive) | > 100 µM (inactive) | > 100 µM (inactive) |
| CCCCCCCCCCC(O)[C@H]1CCC(C2CC[C@H]([C@H](O)CCCCCCCCCCC(O)CC3=CC(C)OC3=O)O2)O1 (stereo not given in full) | 3.67 µM (inactive) | 2.32 µM (inactive) | 1.6 µM (inactive) |  |  | < 0.01 µM (active) | 3.33 µM (inactive) | 2.54 µM (inactive) | 2.01 µM (inactive) |
| Cc1ccc(S(=O)(=O)N2CCCCC2CCO)cc1 (stereo not given) | > 100 µM (inactive) | > 100 µM (inactive) | > 100 µM (inactive) | > 100 µM (inactive) |  | > 100 µM (inactive) | > 100 µM (inactive) | > 100 µM (inactive) |  |
| CCC(Oc1ccc(OC)c2c1C(=O)CCC2)C(=O)O (stereo not given) | > 100 µM (inactive) | > 100 µM (inactive) | > 100 µM (inactive) |  | > 100 µM (inactive) | > 100 µM (inactive) |  | > 100 µM (inactive) |  |
| NCCCSCC(=O)O |  | > 100 µM (inactive) | > 100 µM (inactive) |  |  | > 100 µM (inactive) | > 100 µM (inactive) | > 100 µM (inactive) |  |
| COc1ccc(/C(Cl)=C(\c2ccc(OCCN(C)C)cc2)c2ccc(OC(=O)C(C)(C)C)cc2)cc1 | 13.6 µM (inactive) | 16.1 µM (inactive) | 5.07 µM (inactive) |  | 11.5 µM (inactive) | 12.2 µM (inactive) | 3.41 µM (inactive) | 14 µM (inactive) |  |
| O=c1cc(-c2ccccc2)oc2cc(OCCCCCCCCCCOc3ccc4c(=O)cc(-c5ccccc5)oc4c3)ccc12 |  | > 100 µM (inactive) | > 100 µM (inactive) | > 100 µM (inactive) | > 100 µM (inactive) | > 100 µM (inactive) | > 100 µM (inactive) | > 100 µM (inactive) | > 100 µM (inactive) |
| CC[C@]12C=CCN3CCC4(c5cc([C@@]6(C(=O)OC)CC7CN(CCc8c6[nH]c6ccccc86)C[C@@H]6CCC[C@H]76)c(OC)cc5N(C)C4[C@](O)(C(=O)OC)C1OC(C)=O)C32 (stereo not given in full) | 0.494 µM (active) | 0.237 µM (active) |  |  |  | 0.225 µM (active) | 0.126 µM (active) | 0.257 µM (active) |  |
| O=C1C2[C@@H](C(=O)N1c1ccc(Br)cc1)C13C(=CC2([N+](=O)[O-])[C@@H]2C(=O)N(c4ccc(Br)cc4)C(=O)[C@@H]21)c1ccccc1N3c1ccccc1 (stereo not given in full) | > 100 µM (inactive) | > 100 µM (inactive) |  | > 100 µM (inactive) | 39.3 µM (inactive) | > 100 µM (inactive) |  |  | > 100 µM (inactive) |
| CC(C)C(C(=O)N(C)C(Cc1ccccc1)C(=O)N(C)C(C(=O)N(C)C(C(=O)N1CCCC1C(=O)OC(C)(C)C)C(C)C)C(C)C)N(C)C (stereo not given) (ξNMe2Val-[NMeF][NMeV][NMeV]P-OtBu; configuration not given here) |  |  | 21 µM (inactive) |  | 30.8 µM (inactive) | 31.7 µM (inactive) | 20.8 µM (inactive) | 31.8 µM (inactive) |  |
